# Measurements from PMC10412585 (Nature Communications, 2023).
# Entries after “also recorded” stand apart in the source; their conditions may differ.
# Assays:
# NKG2A-/NKG2C+ NK cells = assay: NK cell activation assay with peptide-pulsed K562/HLA-E cells, NKG2A-/NKG2C+ NK cells; type: cell-based, human; conditions: K562/HLA-E target cells, 300 µM peptide ([…] µM BFAR263-271), E:T 2:1, 6 h; degranulation (CD107a), IFN-γ, TNF, CCL3; flow cytometry
# Protocol: (§1) We hypothesized that our predicted proteome-derived peptides could affect NK cell activation through interactions with CD94/NKG2A and CD94/NKG2C. To investigate, we performed cell-based activation assays on primary NK cells (Fig. 4A). NK cells were co-incubated with peptide-pulsed HLA-E-expressing K562 cells, as described previously. The parental K562 human myelogenous leukemia cell line is a typical target to measure NK cell cytotoxicity and activation, allowing for assessment of both NKG2A-mediated inhibition and NKG2C-mediated activation. […] NKG2A^-/NKG2C^- NK cells served as internal control as these should be unaffected by peptide-HLA-E complexes (Supplemental Fig. 12).
# (§2) Fig. 4 NK cell stimulation assays. Assessment of effects of peptides on NK cell activity through incubation of NK cells, peptides, and (A) K562/HLA-E or (B) RMA-S/HLA-E target cells. […] Replicates for individual peptides are from different donors, with solid black lines indicating mean values. […] Representative gating for NKG2A^+/NKG2C^- and NKG2A^-/NKG2C^+ NK cells is shown in Supplemental Fig. 14. Source data are provided as a Source Data file.
# (§3) All analyses of human data were carried out in compliance with the relevant ethical regulations. Healthy blood donors gave informed consent at DRK Blutspendedienst Nord-Ost, Dresden, Germany, and buffy coats were obtained as approved by Charité ethics committee (EA4/059/17). PBMCs were isolated from human CMV-seropositive buffy coats by density centrifugation over Ficoll Paque Plus (GE Healthcare) and screened for the presence of NKG2C^+ NK cell expansions by flow cytometry to have sufficient frequencies of single-positive cells for parallel assessment of activation and inhibition via HLA-E[47]. Total NK cells from donors with NKG2C^+ expansions (>10% NKG2A^-/NKG2C^+ NK cells) were enriched with CD56 microbeads (Miltenyi Biotec) and cryopreserved in FBS with 10% v/v DMSO. After thawing, NK cells were washed with complete medium, stained with antibodies and Fixable Viability Dye eFluor 780 (Thermo Fisher) for 15 min at 4 °C in PBS, sorted as viable CD56^+ CD3^− cells, and rested in complete media overnight. […] Brefeldin A and Monensin (BD Biosciences) were added after a 1 h culture period. After an additional 5 h, the stimulation was stopped by centrifugation at 4 °C. Cells underwent surface staining, followed by fixation and intracellular staining using Inside Stain Kit (Miltenyi Biotec). Samples were analyzed by flow cytometry on an LSR Fortessa (BD Biosciences). Inhibition of NKG2A^+ NK cells and activation of NKG2C^+ NK cells was assessed by gating on the respective single-positive populations (Supplemental Fig. 14). Antibodies are listed in Supplemental Table 1: anti-human CD56 PE/Dazzle 594 (1:200 dilution), CD3 APC-eFluor 780 (1:50 dilution), anti-human CD159a (NKG2A) Biotin REAfinity (1:50 dilution), anti-human CD159c (NKG2C) PE REAfinity (1:100 dilution), anti-human CD107a (LAMP-1) Alexa Fluor 488 (1:400 dilution), anti-human IFN-γ PE-Vio 770 REAfinity (1:50 dilution), anti-human TNF-α Brilliant Violet 605 (1:50 dilution), anti-human CCL3 (MIP-1α) REAfinity (1:25 dilution).
# NKG2C+ NK cells = assay: NK cell activation assay with peptide-pulsed RMA-S/HLA-E cells; type: cell-based, human
# Protocol: as §2
# In contrast to K562 cell lines which are targets for human NK cells, RMA-S cells (a TAP-deficient mouse cell line)[48] are inert to human NK cells and thus will not activate NK cells absent engagement of an activating receptor on the NK cells. […] We performed additional NK cell activation assays with RMA-S/HLA-E cells (Fig. 4B).
# as §3
# CD94/NKG2A = biological target: T1, CD94/NKG2A (Homo sapiens, UniProt P26715+Q13241); assay: Steady-state SPR of peptide-HLA-E single chain trimers with CD94/NKG2A; type: binding; conditions: SPR with CD94/NKG2A and CD94/NKG2C, Fig. 5B; taken as lower stability of the peptide-HLA-E complex
# T1 construct: The C-terminus of human NKG2A or NKG2C ectodomain was connected via a GGSGGS linker to human CD94 ectodomain; AviTag biotinylation tag (C); poly-histidine tag (C); made in house; host or cells: baculovirus, High Five (Hi5) insect cells
# T1 sequence (Q13241 whole entry, looked up, the tested form may be a part): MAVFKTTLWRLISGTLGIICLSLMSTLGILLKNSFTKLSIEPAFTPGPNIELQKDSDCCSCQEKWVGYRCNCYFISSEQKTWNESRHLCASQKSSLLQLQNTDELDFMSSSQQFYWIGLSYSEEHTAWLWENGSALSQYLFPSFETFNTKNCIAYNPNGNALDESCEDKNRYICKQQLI
# T1 sequence (P26715 whole entry, looked up, the tested form may be a part): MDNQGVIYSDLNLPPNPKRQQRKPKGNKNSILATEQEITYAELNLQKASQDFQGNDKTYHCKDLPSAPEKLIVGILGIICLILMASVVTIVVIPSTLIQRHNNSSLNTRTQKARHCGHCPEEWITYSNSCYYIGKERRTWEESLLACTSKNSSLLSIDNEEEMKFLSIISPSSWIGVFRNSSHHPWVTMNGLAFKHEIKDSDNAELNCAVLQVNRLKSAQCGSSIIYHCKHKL
# Protocol: Specifically, we measured CD94/NKG2A and CD94/NKG2C affinity for HLA-E complexed with three sets of peptides. […] Third, we included […] peptide as a positive control.
# Steady-state surface plasmon resonance experiments were performed with a Biacore T200 instrument. CD94/NKG2x in HBS-EP+ buffer was injected as analyte in a concentration range of 0.1 μM to 102.4 μM and flow rate of 10 μL/min at 25 °C. Data was fit with Prism 9.4 (GraphPad Software Inc; San Diego CA) to a “one site, specific binding” model. Sensorgrams are included in Supplemental Fig. 13.
# For investigating WN peptides, biotinylated pMHC was immobilized at approximately 400 Response Units (RU) on a Series S SA sensor chip (Cytiva). […] CD94/NKG2A was injected followed by CD94/NKG2C.
# For investigating human-derived peptides, Series S CM5 chips (Cytiva) were coupled to neutravidin and utilized. Biotinylated pMHC was immobilized at approximately 400 RU. On one chip, […] CD94/NKG2A was injected followed by CD94/NKG2C. On a second chip, PISD55-63 HLA-E SCT, AKAP6_388-396 HLA-E SCT, GTF3C5_293-301 HLA-E SCT, and reference HLA-DR401 were immobilized. CD94/NKG2C was injected followed by CD94/NKG2A. Rmax, fit values were calculated by Biacore software. Rmax, theoretical values were calculated using the analyte/ligand mass ratio (0.66) multiplied by the amount of ligand coupled to the chip.
# NKG2A+/NKG2C- NK cells = assay: NK cell activation assay with peptide-pulsed K562/HLA-E cells, NKG2A+/NKG2C- NK cells; type: cell-based, human; conditions: K562/HLA-E target cells, 300 µM peptide ([…] µM BFAR263-271), E:T 2:1, 6 h; degranulation (CD107a), IFN-γ, TNF, CCL3; flow cytometry
# Protocol: as §1, §2, §3
# HLA-E [1] = assay: HLA-E surface stabilization assay with RMA-S/HLA-E cells; type: cell-based, human; conditions: peptide 3-300 µM (Fig. 3: 30 µM) in OptiMEM, 16 h, 37 °C, anti-HLA-E 3D12, flow cytometry, n = 4 replicate experiments
# Protocol: To probe top-predicted proteome-derived peptides (Tables 2 and 3) for HLA-E binding, we assessed their ability to stabilize surface-expressed HLA-E on RMA-S/HLA-E cells, a TAP-deficient mouse cell line engineered to express HLA-E and human β2M (Fig. 3 and Supplemental Fig. 8)[47].
# Fig. 3 Peptide stabilization of HLA-E surface expression. Assessment of peptide-HLA-E binding via HLA-E surface stabilization assay with RMA-S/HLA-E cells incubated with 30 μM peptide. HLA-E expression is detected with an anti-HLA-E antibody. Measurements from n = 4 replicate experiments are shown, with solid black lines indicating mean values. […] Source data are provided as a Source Data file.
# RMA-S/HLA-E cells were incubated with serial dilutions of peptides (3–300 µM, Genscript) in OptiMEM (ThermoFisher) for 16 h at 37 °C. Cells were washed with PBS, stained for HLA-E (Clone 3D12, Biolegend, 1:200 dilution) for 15 min at room temperature and analyzed by flow cytometry (analysis in FlowJo version 10). Peptide UBAC2_275-279 was ordered as a 5mer peptide (WNRLF) given the similarity with other WN peptides and hypothesis of a truncated peptide binding in the HLA-E groove. […] Measurements from replicate experiments are plotted in Fig. 3 and Supplemental Fig. 8.
# HLA-E [2] = assay: Prometheus differential scanning fluorimetry of HLA-E with peptide; type: binding, human; conditions: refolded HLA-E*01:03/β2M 9 μg, 50x peptide to MHC ratio, high sensitivity capillary, 1 °C per minute 20-95 °C, first inflection point; DMSO control 33.8
# Protocol: Differential scanning fluorimetry (DSF) experiments were performed with a Prometheus NanoTemper NT.48 (Munich, Germany) to measure protein stability, using intrinsic tryptophan fluorescence.
# For these experiments, refolded empty HLA-E was generated. Human β2M plus a poly-histidine tag and HLA-E*01:03 extracellular α1, α2, and α3 domains plus an AviTag biotinylation tag were separately codon optimized for E. coli and cloned into the bacterial expression vector pET28a. Inclusion bodies for HLA-E and β2M were made in BL21 E. coli. Inclusion bodies were purified, homogenized, and dissolved, including denaturation in 8 M urea solution. Before refolding, each IB was mixed with an equal volume of Gdn-Cl solution (6 M Guanidine HCl, 500 mM Tris, 2 mM EDTA, 100 mM NaCl) and incubated overnight at 37 °C. β2M was injected dropwise with a 27-gauge needle into refolding buffer (100 mM pH 8.3 Tris, 400 mM L-arginine hydrochloride, 2 mM EDTA, 0.5 mM oxidized glutathione, 5 mM reduced glutathione, 0.2 mM PMSF) and incubated, stirring gently, at 4 °C for 1 h, after which an equal mass of HLA-E heavy chain was similarly injected. This solution incubated at 4 °C overnight, followed by two days of dialysis in 10 mM Tris + 50 mM NaCl. Protein was concentrated in 10 kDa molecular weight cutoff centrifugal concentrators and purified by size exclusion chromatography on an AKTAPURE FPLC (GE Healthcare, Chicago IL), using an S200 column followed by a S75 column.
# Individual DSF reactions were set up with 9 μg of MHC and 100×, 50×, or 10× peptide to MHC ratio by molarity (peptides from GenScript). The final reaction volume was 20 μL and reaction mixtures were incubated at room temperature for 20–30 min.
# Prometheus excitation power was set such that raw fluorescence counts were between 8000–15000 for each sample. Samples were heated at 1 °C per minute, from 20–95 °C. DSF measurements were taken in duplicate with high-sensitivity and standard capillaries. Melting temperatures were similar for a given peptide across conditions, and representative data from 50x ratio in high sensitivity capillary are presented. A secondary inflection point around 60 °C in most melts is consistent with melting of β2M[76]. […]
# Supplemental Figure 9. Differential scanning fluorimetry data generated via Prometheus NanoTemper for predicted peptides with HLA-E. a) Raw 350/330 nm ratios and first derivative for samples. The second inflection point is consistent with β2M unfolding. b) Summary of Tm values for the first inflection point called by Prometheus software for these samples. […]
Sequence,activating effects on NKG2C+ cells (NKG2A-/NKG2C+ NK cells),NKG2C-mediated NK cell activation (NKG2C+ NK cells),"average percent CD107a+ (NKG2C+ NK cells; NKG2C+ NK cells with RMA-S/HLA-E cells, Fig. 4B, stated in author rebuttal) [%]",maximal response units (Rmax) compared to theoretical maximum (CD94/NKG2A),inhibitory effects on NKG2A+ cells (NKG2A+/NKG2C- NK cells),stabilization of HLA-E surface expression (HLA-E [1]),Tm (HLA-E [2]) [°C]
"TGPWRSLWI [GTF3C5_293-301, human peptide from General transcription factor 3C polypeptide 5]",clear activating effects,"detectable activation, though below both positive control examples",11.1,lower maximal values compared to the theoretical maximum,minimal inhibitory effects,weak but detectable stabilization,–
"VLPHRTQFL [UL120_72-80, Merlin, CMV peptide from Membrane protein UL120, strain Merlin]",strong activating effects,activation similar to the weaker positive control ([…]) or between the two positive controls,–,–,strong inhibitory effects,strong binding that is weaker than VMAPRTLFL; also recorded: strong HLA-E binding,45.7
QMPSRSLLF [CREB3L1_419-427],strong activating effects,activation similar to the weaker positive control ([…]) or between the two positive controls,–,–,more moderate inhibitory effects,strong binding that is weaker than VMAPRTLFL; also recorded: strong stabilization,46.2
